Reference: article PMC5513037, “Examining the influence of specificity ligands and ATP-competitive ligands on the overall effectiveness of bivalent kinase inhibitors” (Proteome Science, 2017)

How the values were obtained:
Experiment in all cases: KAM-matrix competition in K562 lysate;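 on 0.001 uM KAM: median log10 fold change of treatment over DMSO control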;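 on 0.01 uM KAM: median log10 fold change of treatment over DMSO control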;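 on 0.1 uM KAM: median log10 fold change of treatment over DMSO control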;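 on 1 uM KAM: median log10 fold change of treatment over DMSO control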;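 on 10 uM KAM: median log10 fold change of treatment over DMSO control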
Format in all cases: binding
ADCK1 = target: T1, ADCK1 (Homo sapiens, UniProt Q86TW2);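 on 0.001 uM KAM: median log10 fold change of treatment over DMSO control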;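 on 0.01 uM KAM: median log10 fold change of treatment over DMSO control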;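 on 0.1 uM KAM: median log10 fold change of treatment over DMSO control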;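 on 1 uM KAM: median log10 fold change of treatment over DMSO control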;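 on 10 uM KAM: median log10 fold change of treatment over DMSO control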
T1 construct: endogenous in cells; host or cells: K562
T1 sequence (Q86TW2 1-530): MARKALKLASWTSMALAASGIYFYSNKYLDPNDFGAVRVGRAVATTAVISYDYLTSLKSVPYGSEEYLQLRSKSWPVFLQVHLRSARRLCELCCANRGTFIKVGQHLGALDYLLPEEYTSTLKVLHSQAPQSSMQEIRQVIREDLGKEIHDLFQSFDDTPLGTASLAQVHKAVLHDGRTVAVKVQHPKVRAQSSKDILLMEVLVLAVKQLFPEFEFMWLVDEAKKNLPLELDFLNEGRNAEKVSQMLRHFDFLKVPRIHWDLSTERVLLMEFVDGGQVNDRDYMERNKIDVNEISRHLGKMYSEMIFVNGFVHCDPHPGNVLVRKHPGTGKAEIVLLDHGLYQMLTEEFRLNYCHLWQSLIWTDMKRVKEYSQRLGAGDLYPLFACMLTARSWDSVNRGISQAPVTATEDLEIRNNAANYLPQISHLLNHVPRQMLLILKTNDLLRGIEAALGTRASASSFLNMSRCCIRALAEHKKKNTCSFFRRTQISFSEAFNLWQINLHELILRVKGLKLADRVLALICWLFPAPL
Description: (§1) Supplement 12953_2017_125_MOESM1_ESM.zip/MS_Supp Info.xlsx, sheet "KAM" | column: 10 uM KAM; 1 uM KAM; 0.1 uM KAM; 0.01 uM KAM; 0.001 uM KAM; RB50

ADRBK1 = target: T2, ADRBK1 (Homo sapiens, UniProt P25098);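 on 0.001 uM KAM: median log10 fold change of treatment over DMSO control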;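 on 0.01 uM KAM: median log10 fold change of treatment over DMSO control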;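 on 0.1 uM KAM: median log10 fold change of treatment over DMSO control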;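 on 1 uM KAM: median log10 fold change of treatment over DMSO control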;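 on 10 uM KAM: median log10 fold change of treatment over DMSO control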
T2 construct: endogenous in cells; host or cells: K562
T2 sequence (P25098 1-689): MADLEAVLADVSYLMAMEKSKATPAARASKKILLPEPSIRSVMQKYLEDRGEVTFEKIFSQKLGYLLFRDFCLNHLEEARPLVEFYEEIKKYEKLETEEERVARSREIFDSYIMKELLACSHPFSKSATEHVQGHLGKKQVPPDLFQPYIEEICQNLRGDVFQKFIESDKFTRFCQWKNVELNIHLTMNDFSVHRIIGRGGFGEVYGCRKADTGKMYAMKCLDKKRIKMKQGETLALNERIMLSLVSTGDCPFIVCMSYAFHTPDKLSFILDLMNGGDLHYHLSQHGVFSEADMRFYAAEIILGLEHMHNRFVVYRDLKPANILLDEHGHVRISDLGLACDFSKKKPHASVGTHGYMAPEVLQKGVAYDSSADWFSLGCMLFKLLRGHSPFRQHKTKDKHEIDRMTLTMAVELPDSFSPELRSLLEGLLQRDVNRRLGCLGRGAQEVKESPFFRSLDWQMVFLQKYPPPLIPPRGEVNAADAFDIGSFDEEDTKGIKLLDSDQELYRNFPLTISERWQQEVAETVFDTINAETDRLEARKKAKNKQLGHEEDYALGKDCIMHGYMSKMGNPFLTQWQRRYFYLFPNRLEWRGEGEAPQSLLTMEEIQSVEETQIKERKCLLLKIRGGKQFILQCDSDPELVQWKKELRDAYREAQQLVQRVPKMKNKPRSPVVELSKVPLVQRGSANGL
Description: as §1

FER = target: T3, FER (Homo sapiens, UniProt P16591)
T3 construct: endogenous in cells; host or cells: K562 lysate
T3 sequence (P16591 whole entry): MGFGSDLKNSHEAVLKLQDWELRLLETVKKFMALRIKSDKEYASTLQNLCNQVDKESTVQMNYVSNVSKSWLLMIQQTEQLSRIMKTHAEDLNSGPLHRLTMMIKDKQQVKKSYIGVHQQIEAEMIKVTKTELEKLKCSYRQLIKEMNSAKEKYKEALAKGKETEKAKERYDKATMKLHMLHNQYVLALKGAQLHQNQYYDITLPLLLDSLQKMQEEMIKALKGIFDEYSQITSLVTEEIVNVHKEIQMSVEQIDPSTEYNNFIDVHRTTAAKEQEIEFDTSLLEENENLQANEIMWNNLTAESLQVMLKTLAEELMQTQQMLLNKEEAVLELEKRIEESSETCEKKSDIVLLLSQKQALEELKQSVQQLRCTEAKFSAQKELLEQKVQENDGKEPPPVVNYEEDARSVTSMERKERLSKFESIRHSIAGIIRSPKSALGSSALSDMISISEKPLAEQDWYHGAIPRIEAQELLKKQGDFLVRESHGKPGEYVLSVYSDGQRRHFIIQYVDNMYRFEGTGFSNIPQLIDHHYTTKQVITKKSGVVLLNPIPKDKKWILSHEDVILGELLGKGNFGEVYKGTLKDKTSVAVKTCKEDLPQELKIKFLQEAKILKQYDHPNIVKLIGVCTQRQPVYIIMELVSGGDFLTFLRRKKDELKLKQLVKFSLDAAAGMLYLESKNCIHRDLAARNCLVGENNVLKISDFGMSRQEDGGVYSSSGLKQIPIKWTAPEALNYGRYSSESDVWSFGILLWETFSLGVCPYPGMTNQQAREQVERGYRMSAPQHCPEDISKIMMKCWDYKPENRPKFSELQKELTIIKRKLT
Description: as §1

HIPK2 = target: T4, HIPK2 (Homo sapiens, UniProt Q9H2X6)
T4 construct: endogenous in cells; host or cells: K562 cell lysate
T4 sequence (Q9H2X6 whole entry): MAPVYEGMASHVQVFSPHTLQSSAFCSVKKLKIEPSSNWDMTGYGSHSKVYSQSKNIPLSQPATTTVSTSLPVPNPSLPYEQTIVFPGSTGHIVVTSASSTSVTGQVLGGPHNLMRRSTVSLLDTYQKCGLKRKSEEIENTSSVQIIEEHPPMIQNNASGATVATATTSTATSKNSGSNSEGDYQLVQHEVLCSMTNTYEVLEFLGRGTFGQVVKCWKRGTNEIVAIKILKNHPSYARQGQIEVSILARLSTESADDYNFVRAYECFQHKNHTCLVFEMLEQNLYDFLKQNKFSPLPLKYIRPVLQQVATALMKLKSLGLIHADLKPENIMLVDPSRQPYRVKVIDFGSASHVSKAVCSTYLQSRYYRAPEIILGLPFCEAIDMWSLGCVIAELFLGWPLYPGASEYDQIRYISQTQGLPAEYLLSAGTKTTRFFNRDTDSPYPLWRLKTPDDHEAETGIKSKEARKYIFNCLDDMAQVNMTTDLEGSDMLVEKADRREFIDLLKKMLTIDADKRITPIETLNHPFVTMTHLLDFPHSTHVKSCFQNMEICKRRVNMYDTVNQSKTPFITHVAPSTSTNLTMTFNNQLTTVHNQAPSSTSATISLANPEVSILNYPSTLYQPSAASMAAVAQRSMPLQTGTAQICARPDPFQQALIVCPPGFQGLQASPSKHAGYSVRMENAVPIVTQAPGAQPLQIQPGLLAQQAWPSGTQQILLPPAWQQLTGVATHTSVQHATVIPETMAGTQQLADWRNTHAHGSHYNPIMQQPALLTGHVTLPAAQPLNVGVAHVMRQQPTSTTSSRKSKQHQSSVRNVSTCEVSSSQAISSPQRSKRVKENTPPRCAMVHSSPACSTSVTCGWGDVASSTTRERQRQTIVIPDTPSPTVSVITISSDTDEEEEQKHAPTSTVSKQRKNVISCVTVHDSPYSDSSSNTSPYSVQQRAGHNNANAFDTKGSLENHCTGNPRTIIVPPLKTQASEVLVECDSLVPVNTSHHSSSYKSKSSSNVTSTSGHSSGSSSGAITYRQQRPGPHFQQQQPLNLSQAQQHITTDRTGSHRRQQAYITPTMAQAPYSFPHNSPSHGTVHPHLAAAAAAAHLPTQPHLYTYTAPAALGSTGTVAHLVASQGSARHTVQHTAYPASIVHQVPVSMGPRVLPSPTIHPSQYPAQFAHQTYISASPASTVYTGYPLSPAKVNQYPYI
Description: as §1

LIMK1 = LIMK1 (Homo sapiens, UniProt P53667);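 on 0.001 uM KAM: median log10 fold change of treatment over DMSO control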;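 on 0.01 uM KAM: median log10 fold change of treatment over DMSO control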;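 on 0.1 uM KAM: median log10 fold change of treatment over DMSO control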;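 on 1 uM KAM: median log10 fold change of treatment over DMSO control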;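 on 10 uM KAM: median log10 fold change of treatment over DMSO control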
LIMK1, sequence (P53667 whole entry): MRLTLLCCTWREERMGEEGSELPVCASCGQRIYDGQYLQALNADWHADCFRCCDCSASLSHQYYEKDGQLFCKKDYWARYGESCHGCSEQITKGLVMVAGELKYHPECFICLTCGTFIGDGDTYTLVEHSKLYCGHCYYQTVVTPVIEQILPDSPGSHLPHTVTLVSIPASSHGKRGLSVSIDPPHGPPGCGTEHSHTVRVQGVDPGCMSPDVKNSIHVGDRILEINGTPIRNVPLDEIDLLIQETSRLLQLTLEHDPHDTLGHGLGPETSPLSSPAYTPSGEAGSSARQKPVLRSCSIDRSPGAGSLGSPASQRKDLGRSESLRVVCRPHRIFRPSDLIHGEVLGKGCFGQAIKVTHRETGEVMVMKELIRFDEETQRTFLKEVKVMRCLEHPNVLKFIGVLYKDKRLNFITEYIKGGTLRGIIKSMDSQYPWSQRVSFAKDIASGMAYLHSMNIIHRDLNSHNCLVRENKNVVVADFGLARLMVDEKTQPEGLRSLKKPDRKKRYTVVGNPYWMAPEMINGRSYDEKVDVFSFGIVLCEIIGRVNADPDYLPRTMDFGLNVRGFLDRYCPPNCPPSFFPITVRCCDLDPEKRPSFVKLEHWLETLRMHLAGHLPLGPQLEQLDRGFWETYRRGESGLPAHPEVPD
Description: as §1

MAP3K3 = target: T5, MAP3K3 (Homo sapiens, UniProt Q99759)
T5 construct: endogenous in cells; host or cells: K562 cell lysate
T5 sequence (Q99759 1-626): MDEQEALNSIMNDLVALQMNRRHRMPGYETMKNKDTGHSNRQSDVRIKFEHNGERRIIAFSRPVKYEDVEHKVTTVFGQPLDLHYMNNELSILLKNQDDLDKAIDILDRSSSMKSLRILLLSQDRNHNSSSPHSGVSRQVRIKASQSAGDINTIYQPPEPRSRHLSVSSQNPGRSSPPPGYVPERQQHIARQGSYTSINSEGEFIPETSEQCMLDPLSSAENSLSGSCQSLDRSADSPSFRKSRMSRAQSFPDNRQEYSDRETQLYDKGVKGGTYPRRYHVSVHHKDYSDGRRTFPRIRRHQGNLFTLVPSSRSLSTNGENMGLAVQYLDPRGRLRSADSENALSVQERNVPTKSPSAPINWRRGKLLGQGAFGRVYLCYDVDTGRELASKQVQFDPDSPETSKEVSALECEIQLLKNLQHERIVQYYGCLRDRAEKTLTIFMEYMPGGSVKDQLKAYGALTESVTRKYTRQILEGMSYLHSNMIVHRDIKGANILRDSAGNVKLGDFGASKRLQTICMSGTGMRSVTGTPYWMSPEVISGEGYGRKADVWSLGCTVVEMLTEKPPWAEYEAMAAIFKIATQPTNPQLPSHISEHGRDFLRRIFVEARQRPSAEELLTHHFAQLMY
Description: as §1

MAPK3 = target: T6, MAPK3 (Homo sapiens, UniProt P27361)
T6 construct: endogenous in cells; host or cells: K562
T6 sequence (P27361 whole entry): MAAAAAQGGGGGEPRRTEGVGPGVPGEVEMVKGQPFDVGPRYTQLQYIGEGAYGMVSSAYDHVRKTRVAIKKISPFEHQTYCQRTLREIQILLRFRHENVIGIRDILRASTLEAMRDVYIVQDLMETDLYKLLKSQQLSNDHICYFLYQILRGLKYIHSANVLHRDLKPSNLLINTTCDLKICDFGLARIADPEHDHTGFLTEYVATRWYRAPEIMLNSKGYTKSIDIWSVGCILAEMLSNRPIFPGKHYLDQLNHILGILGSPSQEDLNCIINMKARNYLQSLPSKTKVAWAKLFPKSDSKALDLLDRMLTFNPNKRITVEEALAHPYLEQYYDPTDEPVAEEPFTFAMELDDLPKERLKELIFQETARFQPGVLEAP
Description: as §1

[1] = KAM 0.001-10 uM, read-out: RB50 (the source's name)
[2] = read-out: RB50 (the source's name)

Q: How did the IC50 (ADCK1; [1]) turn out when `N#CCc1ccc(Nc2nc(NCCCN)cc(Nc3cc(C4CC4)[nH]n3)n2)cc1` [KAM] was run?
A: > 10 µM

Q: What about the “0.001 uM KAM” value (ADCK1; relative to 0 uM KAM = 0) of the same compound?
A: -0.001358

Q: And the “0.01 uM KAM” value (ADCK1; relative to 0 uM KAM = 0)?
A: -0.0336

Q: What about the “0.1 uM KAM” value (ADCK1; relative to 0 uM KAM = 0) of the same compound?
A: -0.06203

Q: And the “1 uM KAM” value (ADCK1; relative to 0 uM KAM = 0)?
A: -0.1949

Q: What about the “10 uM KAM” value (ADCK1; relative to 0 uM KAM = 0) of the same compound?
A: -0.2595

Q: What about the IC50 (ADRBK1; [1]) of the same compound?
A: > 10 µM

Q: What about the “0.001 uM KAM” value (ADRBK1; relative to 0 uM KAM = 0) of the same compound?
A: 0.02352

Q: What about the “0.01 uM KAM” value (ADRBK1; relative to 0 uM KAM = 0) of the same compound?
A: 0.07327

Q: And the “0.1 uM KAM” value (ADRBK1; relative to 0 uM KAM = 0)?
A: 0.03347

Q: What about the “1 uM KAM” value (ADRBK1; relative to 0 uM KAM = 0) of the same compound?
A: 0.04428

Q: What about the “10 uM KAM” value (ADRBK1; relative to 0 uM KAM = 0) of the same compound?
A: 0.02417

Q: And the “median Log10 fold change” value (FER; 0.001 uM KAM)?
A: -0.01643

Q: And the “median Log10 fold change” value (FER; 0.01 uM KAM)?
A: -0.02602

Q: And the “median Log10 fold change” value (FER; 0.1 uM KAM)?
A: -0.1873

Q: And the “median Log10 fold change” value (FER; 1 uM KAM)?
A: -0.4903

Q: What about the “median Log10 fold change” value (FER; 10 uM KAM) of the same compound?
A: -0.6195

Q: And the IC50 (FER; [2])?
A: 0.319 µM

Q: What about the “median Log10 fold change” value (HIPK2; 0.001 uM KAM) of the same compound?
A: -0.003211

Q: And the “median Log10 fold change” value (HIPK2; 0.01 uM KAM)?
A: 0.02239

Q: What about the “median Log10 fold change” value (HIPK2; 0.1 uM KAM) of the same compound?
A: -0.07372

Q: What about the “median Log10 fold change” value (HIPK2; 1 uM KAM) of the same compound?
A: -0.2033

Q: And the “median Log10 fold change” value (HIPK2; 10 uM KAM)?
A: -0.3492

Q: What about the IC50 (HIPK2; [2]) of the same compound?
A: 4.26 µM

Q: And the IC50 (LIMK1; [1])?
A: > 10 µM

Q: What about the “0.001 uM KAM” value (LIMK1; relative to 0 uM KAM = 0) of the same compound?
A: -0.03519

Q: What about the “0.01 uM KAM” value (LIMK1; relative to 0 uM KAM = 0) of the same compound?
A: -0.04768

Q: And the “0.1 uM KAM” value (LIMK1; relative to 0 uM KAM = 0)?
A: -0.0434

Q: And the “1 uM KAM” value (LIMK1; relative to 0 uM KAM = 0)?
A: 0.03552

Q: And the “10 uM KAM” value (LIMK1; relative to 0 uM KAM = 0)?
A: -0.3303

Q: And the “median Log10 fold change” value (MAP3K3; 0.001 uM KAM)?
A: -0.04647

Q: What about the “median Log10 fold change” value (MAP3K3; 0.01 uM KAM) of the same compound?
A: 0.002946

Q: What about the “median Log10 fold change” value (MAP3K3; 0.1 uM KAM) of the same compound?
A: -0.1524

Q: And the “median Log10 fold change” value (MAP3K3; 1 uM KAM)?
A: -0.3206

Q: And the “median Log10 fold change” value (MAP3K3; 10 uM KAM)?
A: -0.4381

Q: What about the IC50 (MAP3K3; [2]) of the same compound?
A: 1 µM

Q: What about the “median Log10 fold change” value (MAPK3; 0.001 uM KAM) of the same compound?
A: -0.06334

Q: And the “median Log10 fold change” value (MAPK3; 0.01 uM KAM)?
A: -0.0563

Q: And the “median Log10 fold change” value (MAPK3; 0.1 uM KAM)?
A: -0.1467

Q: What about the “median Log10 fold change” value (MAPK3; 1 uM KAM) of the same compound?
A: -0.2435

Q: What about the “median Log10 fold change” value (MAPK3; 10 uM KAM) of the same compound?
A: -0.361

Q: What about the IC50 (MAPK3; [2]) of the same compound?
A: 2.36 µM
